Experimental data published in article PMC7023466, “Novel N,N′-Disubstituted Acylselenoureas as Potential Antioxidant and Cytotoxic Agents” (Antioxidants, 2020).
Read-outs that look alike come from different tables or passages of the source.

Experiments:
HT-29 cells = assay: MTT cell viability assay, HT-29; type: cell-based; conditions: Homo sapiens, 48 h, read-out: Growth (%) HT-29
Description: (§1) The cell viability assay of each compound was carried out using the MTT assay. Each compound was dissolved in dimethyl sulfoxide (DMSO) at a concentration of 0.01 M. Serial dilutions were prepared with a non-supplemented culture medium. The effect of each compound on the cell viability was determined at two different concentrations (10 and 50 µM) in MCF-7, HTB-54, and HT-29 cells. In addition, the selected compounds were tested at six different concentrations between 0.1–100 µM in MCF-7, T47D, H1299, HTB-54, and 184B5 cells.
(§2) Briefly, 1 × 10^4 tumor cells/well or 2 × 10^4 non-tumorigenic cells/well were grown in 96-well plates for 12 h. Then, these cells were incubated with either DMSO (control) or a different concentration of each of the tested compounds for 48 h. Three hours before the termination point, 20 µL of MTT were added to measure the cellular viability. The resultant formazan crystals were dissolved in 50 µL of DMSO, and the absorbance was measured at 570 and 630 nm. The results are expressed as IC50, the half maximal inhibitory concentration. This value was calculated using OriginPro 8.5.1. software (OriginLab, Northampton, MA, USA) by nonlinear curve fitting. Furthermore, the selectivity index (SI) was calculated as the ratio of the IC50 values determined for the non-malignant and the tumor cells (IC50 (184B5)/IC50 (MCF-7). The data were obtained from at least three independent experiments performed in quadruplicates.

[1] = ABTS radical scavenging assay; conditions: for ABTS radical scavenging: 0.03 mg/mL, after the incubation time; for ABTS radical scavenging activity compared with controls: 0.003 mg/mL
Description: ABTS radical scavenging was assayed with a colorimetric test as well [59]. Briefly, ABTS was dissolved in deionized water at 1 mg/mL and oxidized to ABTS^+• with potassium persulfate (2.45 mM final concentration). This reaction mixture was kept overnight at room temperature in the dark. After radical generation, ABTS^+• was diluted with 50% ethanol until an absorbance of 0.70 ± 0.02 at 734 nm for measurements. The tested compounds were solved in absolute ethanol at a concentration of 1 mg/mL, and 20 µL of this solution were added to 180 µL of the diluted ABTS^+•. After 6 min of incubation, the absorbance at 734 nm was recorded using 50% ethanol as the blank. Trolox and Asc were used as the positive controls. All of the determinations were carried out in triplicate. The same time intervals as in the DPPH assay were also measured. The ability to scavenge ABTS^+• was calculated using the following formula:(2) % ABTS radical scavenging=Acontrol−Asample/Acontrol × 100 where Acontrol refers to the absorbance of the negative control and Asample refers to the absorbance of the tested compounds. The results are expressed as percentage of ABTS radical scavenging ± SD.

HTB-54 cells = assay: MTT cell viability assay, HTB-54; type: cell-based; conditions: Homo sapiens, 48 h; for activity at 10 µM / activity at 50 µM: read-out: Growth (%) HTB-54
Description: as §1, §2

MCF-7 cells = assay: MTT cell viability assay, MCF-7; type: cell-based, human; conditions: for activity at 10 µM / activity at 50 µM / IC50: Homo sapiens, MCF7; for activity at 10 µM / activity at 50 µM / reduction of cell growth / IC50: 48 h; for activity at 10 µM / activity at 50 µM: read-out: Growth (%) MCF-7; for reduction of cell growth: in at least one of the cell lines (MCF-7, HT-29, HTB-54); for SI (selectivity index): IC50 (184B5)/IC50 (MCF-7)
Description: as §1, §2

H1299 cells = assay: MTT cell viability assay, H1299; type: cell-based; conditions: Homo sapiens, NCI-H1299, lung cancer cells, 48 h
Description: as §1, §2

184B5 cells = assay: MTT cell viability assay, non-malignant 184B5; type: cell-based; conditions: Homo sapiens, non-malignant breast cells, 48 h
Description: as §1, §2

T47D cells = assay: MTT cell viability assay, T47D; type: cell-based; conditions: Homo sapiens, breast cancer cells, 48 h
Description: as §1, §2

[2] = DPPH radical scavenging assay; conditions: for DPPH radical scavenging: 0.003 mg/mL
Description: DPPH assay was performed as described by Svinyarov. Briefly, each compound was initially dissolved in absolute methanol at a concentration of 1 mg/mL, and serial dilutions were prepared. Ascorbic acid (Asc), a well-known and potent antioxidant, was used as a positive control. A methanolic solution (100 µM) of DPPH^• was prepared daily and […]. The absorbance measurements of this solution were needed in order to check the stability of the radical through the time of analysis. Then, 100 µL of DPPH in methanol were added to 100 µL of the compounds’ solutions, and the decolorization of the purple radical to the yellow reduced form was followed at 517 nm. Determinations were recorded at several time intervals. All of the measurements were carried out in triplicate. The results were expressed as the percentage of the radical scavenged, calculated using the following formula:(1) % DPPH radical scavenging = Acontrol−Asample/Acontrol × 100 where Acontrol refers to the absorbance of the negative control and Asample refers to the absorbance of the tested compounds. The results are expressed as percentage of DPPH radical scavenging ± standard deviation (SD).

[3] = HTB-54, lung cancer cells, MTT, read-out: IC50 HTB-54
[4] = MCF-7 and T47D pooled, read-out: IC50 on breast cancer cells
[5] = breast cancer cells, MTT, read-out: IC50 MCF-7
[6] = HTB-54 and H1299 pooled, read-out: IC50 on both lung cancer cells

Compound | activity at 10 µM (HT-29 cells) | activity at 50 µM (HT-29 cells) | ABTS radical scavenging [1] | activity at 10 µM (HTB-54 cells; HTB-54) | activity at 50 µM (HTB-54 cells; HTB-54) | activity at 10 µM (MCF-7 cells; 10 μM) | activity at 50 µM (MCF-7 cells; 50 μM) | IC50 (H1299 cells) | IC50 (184B5 cells) | IC50 (HTB-54 cells; [3]) | reduction of cell growth (MCF-7 cells; 10 μM) | reduction of cell growth (MCF-7 cells; 50 μM) | IC50 (MCF-7 cells; [4]) | IC50 (MCF-7 cells; [5]) | SI (selectivity index) (MCF-7 cells) | IC50 (T47D cells) | IC50 (HTB-54 cells; [6]) | DPPH radical scavenging [2] | DPPH inhibition compared with Asc ([2]; 0.0006 mg/mL, all time-points) | ABTS radical scavenging activity compared with controls [1]
Cc1ccc(NC(=[Se])NC(=O)C=Cc2ccccc2)cc1 [Compound 8b] | 95.3% | 76.9% | below 60% | 85.9% | 72.8% | 95.5% | 82.3% | – | – | – | – | – | – | – | – | – | – | – | – | –
O=C(NC(=[Se])Nc1ccccc1)c1ccc2c(c1)OCO2 [Compound 10a] | 57.3% | 49.5% | – | 44% | 13.1% | 37.8% | 22.4% | 11.2 ± 0.8 µM | > 100 µM | > 100 µM | at least 45% | more than 85% | 4.2 to 8 µM | 4.4 ± 1 µM | >22.9 | 8 ± 1 µM | – | – | – | –
COc1ccc(NC(=[Se])NC(=O)c2ccc3c(c2)OCO3)cc1 [Compound 10c] | 55.7% | 35.5% | – | 78.2% | 5.1% | 52.7% | 15.6% | 7.3 ± 0.2 µM | 53.8 ± 10.5 µM | 5.2 ± 4 µM | at least 45% | more than 85% | – | 8.5 ± 0.6 µM | 6.3 | 12.9 ± 1.5 µM | 1.5 to 7.3 µM | – | – | –
O=C(NC(=[Se])Nc1ccccc1)c1ccccc1Cl [Compound 2a] | 79.1% | 37.8% | – | 91.3% | 65.6% | 93.6% | 30.5% | – | – | – | – | – | – | – | – | – | – | around 40% | – | –
O=C(NC(=[Se])Nc1ccc(Cl)cc1)c1ccccc1 [Compound 1e] | 77.9% | 33.8% | – | 82.3% | 57.2% | 74% | 13.9% | – | – | – | – | – | – | – | – | – | – | around 40% | – | –
COc1ccc(NC(=[Se])NC(=O)c2ccccc2)cc1 [Compound 1c] | 74.9% | 31.9% | – | 64.4% | 57.2% | 67.8% | 13.9% | – | – | – | – | – | – | – | – | – | – | around 40% | greater inhibition compared with Asc | –
O=C(NC(=[Se])Nc1ccc(Cl)cc1)c1ccc2c(c1)OCO2 [Compound 10e] | 54.4% | 21.4% | – | 45.5% | 6.5% | 55.6% | 16.9% | 48.6 ± 0.9 µM | 73.1 ± 5.2 µM | 2.9 ± 3.2 µM | at least 45% | more than 85% | – | 11.7 ± 1.5 µM | 6.2 | 17.4 ± 3.1 µM | – | – | – | –
O=C(NC(=[Se])Nc1ccc(C(F)(F)F)cc1)c1cccs1 [Compound 5d] | 60.6% | 29.3% | – | 76.2% | 4.3% | 46.7% | 23.5% | 7.5 ± 0.2 µM | > 100 µM | 14.6 ± 6.3 µM | at least 45% | more than 85% | 4.2 to 8 µM | 4.2 ± 0.2 µM | – | 6.1 ± 0.4 µM | – | – | – | –
O=C(NC(=[Se])Nc1ccc(Cl)cc1)c1cc2ccccc2s1 [Compound 9e] | 45.4% | 33.5% | – | 32.9% | 9% | 54.8% | 44.4% | 8.7 ± 1.4 µM | > 100 µM | > 100 µM | at least 45% | more than 85% | – | 9.8 ± 0.9 µM | >10.2 | 7.1 ± 0.6 µM | – | – | – | –
COc1ccc(NC(=[Se])NC(=O)C=Cc2ccccc2)cc1 [Compound 8c] | 73.4% | 42.5% | – | 64.1% | 19.3% | 70.2% | 5.7% | – | – | – | – | – | – | – | – | – | – | – | – | potent radical scavenging activity similar to Trolox
O=C(NC(=[Se])Nc1ccccc1)c1ccco1 [Compound 6a] | 72.6% | 35.5% | – | 72.8% | 0.7% | 39.9% | 5% | 30.2 ± 7.2 µM | 52.2 ± 3.8 µM | 26.1 ± 2.3 µM | at least 45% | more than 85% | – | 3.5 ± 0.6 µM | 14.7 | 7.8 ± 1 µM | – | – | – | –
CSc1ccc(Cl)c(C(=O)NC(=[Se])Nc2ccc(C)cc2)c1 [Compound 3b] | 64.7% | 42.5% | – | 45.1% | 22.2% | 64.2% | 24.5% | – | – | – | – | – | – | – | – | – | – | around 40% | – | –
Cc1ccc(NC(=[Se])NC(=O)c2ccc3c(c2)OCO3)cc1 [Compound 10b] | 63.3% | 43.9% | – | 16.4% | 12% | 63% | 7.4% | 5.9 ± 1.4 µM | > 100 µM | 1.5 ± 1.8 µM | at least 45% | more than 85% | – | 7.3 ± 0.3 µM | >13.6 | 11.9 ± 1 µM | 1.5 to 7.3 µM | – | – | potent radical scavenging activity similar to Trolox
O=C(NC(=[Se])Nc1ccc(C(F)(F)F)cc1)c1cc2ccccc2s1 [Compound 9d] | 61.2% | 36% | below 60% | 84.5% | 79.3% | 91.1% | 70.2% | – | – | – | – | – | – | – | – | – | – | – | – | –
